Among the data in PubChem BioAssay AID308 (DTP/NCI, 2004) are T/C values, retold here.

Structures are written as SMILES. “And” between values parts separate entries of the source, which are not always exact repeats. Identical values can stand only once. Inconclusive results and toxic doses are left out.

This experiment relates to BDF1 mice, L1210 6-MP/6-TG resistant leukemia ip, survival T/C. Description: NCI In Vivo Anticancer Drug Screen. Data for tumor model L1210 Leukemia resistant to 6-MP and 6-Thioguanine; NSC 755, NSC 752 (intraperitoneal) in B6D2F1 (BDF1) mice. The settings on record: endpoint: mean survival time, higher = longer survival. The procedure:
The antitumor activity of compounds was measured in mice bearing transplantable tumors. Survival or tumor size were measured and the results are expressed as the measurement made in the treated group (T) divided by the measurement made in the vehicle treated control group (C). The tumor model used in this assay is L1210 Leukemia resistant to 6-MP and 6-Thioguanine; NSC 755, NSC 752 (intraperitoneal) in B6D2F1 (BDF1) mice

[1] abbreviates: dose: 50.0 mg/kg/injection, schedule: Q01DX015 (ip), vehicle: carboxymethylcellulose (CMC).
Where [2] appears, read: dose: 500.0 mg/kg/injection, schedule: Q01DX Z (ip), vehicle: saline.
[3] abbreviates: dose: 30.0 mg/kg/injection, schedule: Q01DX015 (ip), vehicle: carboxymethylcellulose (CMC).

For `CC(=O)CSc1ncnc2nc[nH]c12`, the T/C was 93 % of control (dose: 3.12 mg/kg/injection, schedule: Q01DX015 (ip), vehicle: carboxymethylcellulose (CMC)); 98 % of control (dose: 6.25 mg/kg/injection, schedule: Q01DX015 (ip), vehicle: carboxymethylcellulose (CMC)); 103 % of control (dose: 12.5 mg/kg/injection, schedule: Q01DX015 (ip), vehicle: carboxymethylcellulose (CMC)); 96 % of control (dose: 25.0 mg/kg/injection, schedule: Q01DX015 (ip), vehicle: carboxymethylcellulose (CMC)); 96 % of control under setting [1]; 100 % of control (dose: 62.0 mg/kg/injection, schedule: Q01DX015 (ip), vehicle: carboxymethylcellulose (CMC)). The T/C is 100 % of control (dose: 125.0 mg/kg/injection, schedule: Q01DX015 (ip), vehicle: carboxymethylcellulose (CMC)) and 95 % of control (dose: 250.0 mg/kg/injection, schedule: Q01DX015 (ip), vehicle: carboxymethylcellulose (CMC)).

In the case of `O=CN(O)CC(=O)O`, the T/C (dose: 62.0 mg/kg/injection, schedule: Q01DX Z (ip), vehicle: saline) was 100 % of control; the T/C (dose: 125.0 mg/kg/injection, schedule: Q01DX Z (ip), vehicle: saline) was 112 % of control; the T/C (dose: 250.0 mg/kg/injection, schedule: Q01DX Z (ip), vehicle: saline) was 107 % of control; the T/C under setting [2] is 105 % of control.

`Clc1ncnc2c1ncn2C1CCCCO1` (stereo unspecified): the T/C is, setting by setting: (dose: 62.0 mg/kg/injection, schedule: Q01DX Z (ip), vehicle: other) 96 % of control; (dose: 125.0 mg/kg/injection, schedule: Q01DX Z (ip), vehicle: other) 91 % of control.

As to `O=P(O)(OCC1OC(n2cnc3c(=S)nc[nH]c32)C(O)C1O)Oc1ccccc1` (stereo unspecified), the T/C is, setting by setting: (dose: 200.0 mg/kg/injection, schedule: Q01DX001 (ip), vehicle: carboxymethylcellulose (CMC)) 103 % of control; (dose: 300.0 mg/kg/injection, schedule: Q01DX001 (ip), vehicle: carboxymethylcellulose (CMC)) 99 % of control; (dose: 400.0 mg/kg/injection, schedule: Q01DX001 (ip), vehicle: carboxymethylcellulose (CMC)) 100 % of control; (dose: 500.0 mg/kg/injection, schedule: Q01DX001 (ip), vehicle: carboxymethylcellulose (CMC)) 103 % of control; (dose: 750.0 mg/kg/injection, schedule: Q01DX001 (ip), vehicle: carboxymethylcellulose (CMC)) 94 % of control; (dose: 1000.0 mg/kg/injection, schedule: Q01DX001 (ip), vehicle: carboxymethylcellulose (CMC)) 86 % of control.

On to `Cn1cnc([N+](=O)[O-])c1Sc1nc(N)nc2nc[nH]c12`, for which the T/C reads like this: (dose: 7.5 mg/kg/injection, schedule: Q01DX Z (ip), vehicle: carboxymethylcellulose (CMC)) 95 % of control; (dose: 10.0 mg/kg/injection, schedule: Q01DX Z (ip), vehicle: carboxymethylcellulose (CMC)) 92 % of control; (dose: 15.0 mg/kg/injection, schedule: Q01DX Z (ip), vehicle: carboxymethylcellulose (CMC)) 90 % of control; (dose: 20.0 mg/kg/injection, schedule: Q01DX Z (ip), vehicle: carboxymethylcellulose (CMC)) 89 % of control.

With `Nc1ncnc2c1ccn2C1OC(CO)C(O)C1O` (stereo unspecified), the T/C reads like this: (dose: 0.03 mg/kg/injection, schedule: Q01DX Z (ip), vehicle: carboxymethylcellulose (CMC)) 99 % of control; (dose: 0.06 mg/kg/injection, schedule: Q01DX Z (ip), vehicle: carboxymethylcellulose (CMC)) 101 % of control; (dose: 0.12 mg/kg/injection, schedule: Q01DX Z (ip), vehicle: carboxymethylcellulose (CMC)) 108 % of control; (dose: 0.25 mg/kg/injection, schedule: Q01DX Z (ip), vehicle: carboxymethylcellulose (CMC)) 104 % of control; (dose: 0.5 mg/kg/injection, schedule: Q01DX Z (ip), vehicle: carboxymethylcellulose (CMC)) 106 % of control; (dose: 1.0 mg/kg/injection, schedule: Q01DX Z (ip), vehicle: carboxymethylcellulose (CMC)) 102 % of control. Also, the T/C (dose: 2.0 mg/kg/injection, schedule: Q01DX Z (ip), vehicle: carboxymethylcellulose (CMC)) is 98 % of control.

For the molecule `CSc1ncnc2nc[nH]c12`, the T/C reads like this: under setting [3], 89 % of control; (dose: 31.0 mg/kg/injection, schedule: Q01DX Z (ip), vehicle: carboxymethylcellulose (CMC)) 97 % of control; (dose: 45.0 mg/kg/injection, schedule: Q01DX015 (ip), vehicle: carboxymethylcellulose (CMC)) 103 % of control; (dose: 60.0 mg/kg/injection, schedule: Q01DX015 (ip), vehicle: carboxymethylcellulose (CMC)) 88 % of control; (dose: 62.5 mg/kg/injection, schedule: Q01DX Z (ip), vehicle: carboxymethylcellulose (CMC)) 92 % of control; (dose: 75.0 mg/kg/injection, schedule: Q01DX015 (ip), vehicle: carboxymethylcellulose (CMC)) 89 % of control. In addition, the T/C reads like this: (dose: 90.0 mg/kg/injection, schedule: Q01DX015 (ip), vehicle: carboxymethylcellulose (CMC)) 86 % of control; (dose: 120.0 mg/kg/injection, schedule: Q01DX001 (ip), vehicle: carboxymethylcellulose (CMC)) 95 % of control and 104 % of control; (dose: 125.0 mg/kg/injection, schedule: Q01DX Z (ip), vehicle: carboxymethylcellulose (CMC)) 88 % of control; (dose: 180.0 mg/kg/injection, schedule: Q01DX001 (ip), vehicle: carboxymethylcellulose (CMC)) 92 % of control; (dose: 270.0 mg/kg/injection, schedule: Q01DX001 (ip), vehicle: carboxymethylcellulose (CMC)) 94 % of control.

For the molecule `C[C@H](N)C(=O)N[C@@H]1[C@H]2C(=C(O)C[C@@H](O)[C@@H]2O)C(=O)O[C@@H]1C`, the T/C runs as follows: (dose: 330.0 mg/kg/injection, schedule: Q01DX015 (ip), vehicle: carboxymethylcellulose (CMC)) 152 % of control; under setting [2], 189 % of control; (dose: 750.0 mg/kg/injection, schedule: Q01DX Z (ip), vehicle: saline) 185 % of control; (dose: 2000.0 mg/kg/injection, schedule: Q01DX Z (ip), vehicle: saline) 100 % of control.

Take `S=c1nc[nH]c2c1ncn2C1CCCC1`: the T/C (dose: 10.0 mg/kg/injection, schedule: Q01DX015 (ip), vehicle: carboxymethylcellulose (CMC)) was 95 % of control; the T/C (dose: 10.0 mg/kg/injection, schedule: Q01DX015 (ip), vehicle: saline) was 100 % of control; the T/C under setting [3] is 98 % of control; the T/C under setting [1] is 97 % of control; the T/C (dose: 50.0 mg/kg/injection, schedule: Q01DX015 (ip), vehicle: saline) is 93 % of control.
